For 17 compounds, IC50 results are on record in US11111232B2, “Substituted cyclobutylpyridine and cyclobutylpyrimidine compounds as indoleamine 2,3-dioxygenase (IDO) inhibitors” (MERCK SHARP & DOHME CORP., priority 2017, dated 2021).

Assay type in all cases: cell-based
Test [1] concerns the target T1, IDO1 (Homo sapiens, UniProt P14902). Put plainly: IDO1 cellular assay in Hela cells stimulated with IFNγ. To be noted: IFNγ 100 ng/mL, 300 uM L-tryptophan, about 48 hours, fluorescence readout. On the procedure:
IDO1 Cellular Assay in Hela Cells Stimulated with IFNγ
Hela cells were cultured in complete Hela culture medium (90% EMEM, 10% heat-inactivated fetal bovine serum) and expanded to about 1×10^9 cells. The cells were then collected and frozen down at 1×10^7 cells/vial in 1 mL frozen medium (90% complete Hela culture medium, 10% DMSO)
Compounds to be tested were serially diluted in ten 3-fold steps in DMSO starting from 10 mM DMSO stocks in Echo low volume plate(s).
Frozen Hela cells were thawed and transferred into Hela assay medium (99% complete Hela culture medium, 1% Pen/Strep) with 20 mL medium/vial of cells. The cells were spun down at 250 g in a table top centrifuge for 5 min and suspended in same volume of Hela assay medium. […] Sterile L-tryptophan were added to the cells with final concentration of 300 uM L-tryptophan. A small aliquot (2 mL/plate) of Hela cells were set aside and were not treated with IFNγ, to serve as the Max-E control.
Hela cells with and without IFNγ were dispensed to the respective wells of 384-well assay plates containing the compounds. The plates were incubated for about 48 hours at a 37° C., 5% CO2 incubator. Afterwards, […] of 0.5 M methyl isonipecotate in dimethyl sulfoxide were added into each well and the plates were sealed and incubated at 37° C. without CO2 overnight. The plates were centrifuged for 1 min at 200×g. The resulting fluorescence was measured in a Spectramax plate reader (Molecular Devices) with a 400 nm excitation filter and a 510 nm emission filter.
Potencies were calculated by linear least squares fit to the four parameter logistic IC50 equation.

A further test addresses T2, TDO (Homo sapiens, UniProt P48775).
T2 construct: endogenous in cells; host or cells: SW48 cells (A2780 cells as low-TDO control)
Put plainly: TDO cellular assay in frozen SW48 cells. To be noted: 300 uM L-tryptophan, about 48 hours, fluorescence readout. On the procedure: TDO Cellular Assay in Frozen SW48 Cells
SW48 cells were cultured in complete RPMI culture medium (90% RPMI, 10% heat-inactivated fetal bovine serum).
Compounds to be tested were serially diluted in ten 3-fold steps in DMSO starting from 10 mM DMSO stocks in Echo low volume plate(s). […] The cells were spun down at 350 g in a table top centrifuge for 5 minutes and suspended in same volume of RPMI assay medium. […] Sterile L-tryptophan (Sigma, Cat #T0254) was added to the cells with final concentration of 300 uM.
SW48 and A2780 cells were dispensed to the respective wells of 384-well assay plates containing the compounds. The plates were incubated for about 48 hours at a 37° C., 5% CO2 incubator. Afterwards, 12 μL of 0.5 M ethyl isonipecotate (Sigma Aldrich, Cat #E33505) in dimethyl sulfoxide were added into each well and the plates were sealed and incubated at 37° C. without CO2 overnight. The plates were centrifuged for 1 minute at 200×g. The resulting fluorescence was measured in a Spectramax plate reader (Molecular Devices) with a 400 nm excitation filter and a 510 nm emission filter.
The fluorescence intensity of each well was corrected for the background observed in wells with A2780 cells and was expressed as a fraction of the intensity observed in wells of SW48 cells and DMSO only. Potencies were calculated by linear least squares fit to the four parameter logistic IC50 equation.

Test [2] deals with T1, IDO1. Put plainly: IDO1 human whole blood assay. On the set-up: Human whole blood was drawn in sodium heparin coated tubes from healthy internal donors; from tissue; host or cells: human whole blood from healthy donors, stimulated with LPS and IFNγ. To be noted: LPS and IFNγ 100 ng/mL, 18 h, kynurenine by LC/MS/MS. On the procedure:
IDO1Human Whole Blood Assay
Compounds to be tested were serially diluted in ten 3-fold steps in DMSO starting from 10 mM. […] LPS and IFNγ was prepared in RPMI to a 10× of final conc. (1000 ng/mL), final concentration is 100 ng/mL.
Human whole blood was drawn in sodium heparin coated tubes from healthy internal donors. […] of blood was transferred to each of the wells of a v-bottom 96 well plate. […] of compound was transferred from intermediate dilution plate, and incubated for 15 min. 30 μL from stimulants was then transferred to blood and mixed thoroughly. Plate was covered with breathable membrane and incubated at 37° C. for overnight (18 h).
On day 2 isotope labeled standard of kynurenine and tryptophan was made in water at 10× concentration and […] was added to the blood at […] final concentration. The assay plates were centrifuged at 300×G for 10 min with no brake to separate plasma from red blood cells. […] of plasma samples was removed without disturbing red blood cells. Plasma was diluted with RPMI in 1:1 ratio and proteins were precipitated out with two volume of Acetonitrile. The plates was centrifuged at 4000×G for 60 min. 20 mL of supernatant was carefully transferred to a 384 well plate contain 40 mL of 0.1% formic acid in water and analyzed by LC/MS/MS.
LC/MS/MS analyses were performed using Thermo Fisher's LX4-TSQ Quantum Ultra system. This system consists of four Agilent binary high-performance liquid chromatography (HPLC) pumps and a TSQ Quantum Ultra triple quadruple MS/MS instrument. For each sample, […] were injected onto an Atlantis T3 column (2.1 mm×150 mm, […]) from Waters. The mobile phase gradient pumped at 0.8 mL/min was used to elute the analytes from the column at 25° C. […] Mobile phase A consisted of 0.1% formic acid in water. Mobile phase B consisted of 0.1% of formic acid in acetonitrile. Data was acquired in positive mode using a HESI interface. The operational parameters for the TSQ Quantum Ultra instrument were a spray voltage of 4000 V, capillary temperature of 380° C., vaporizer temperature 400° C., shealth gas 60 arbitrary units, Aux gas 20 arbitrary units, tube lens 85 and collision gas 1.2 mTorr. […] The peak area was integrated by Xcalibur Quan software. The ratios between the kynurenine generated in the reaction and 2D6-Kynurenine spiked-in internal standard were used to generate percentage inhibition and IC50 values. Compounds were titrated and IC50′s were calculated by 4 parameter sigmoidal curve fitting formula.

Bounds are passed on as bounds.

One may read the IC50 as the point on the concentration scale where inhibition reaches its midpoint. The low end stands for greater potency, the high end for weaker potency.

T2 sequence (P48775 whole entry): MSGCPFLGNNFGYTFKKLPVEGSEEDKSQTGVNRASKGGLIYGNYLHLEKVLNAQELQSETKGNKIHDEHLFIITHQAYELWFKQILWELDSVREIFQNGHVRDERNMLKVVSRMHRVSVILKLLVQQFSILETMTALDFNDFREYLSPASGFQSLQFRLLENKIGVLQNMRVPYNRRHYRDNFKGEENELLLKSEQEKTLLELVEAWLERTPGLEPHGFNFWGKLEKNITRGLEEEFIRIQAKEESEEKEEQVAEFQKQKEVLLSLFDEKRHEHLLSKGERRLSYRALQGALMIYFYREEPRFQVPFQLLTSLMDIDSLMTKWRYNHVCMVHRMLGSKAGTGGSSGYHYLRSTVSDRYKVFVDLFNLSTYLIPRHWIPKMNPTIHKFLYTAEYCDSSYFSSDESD
T1 sequence (P14902 whole entry): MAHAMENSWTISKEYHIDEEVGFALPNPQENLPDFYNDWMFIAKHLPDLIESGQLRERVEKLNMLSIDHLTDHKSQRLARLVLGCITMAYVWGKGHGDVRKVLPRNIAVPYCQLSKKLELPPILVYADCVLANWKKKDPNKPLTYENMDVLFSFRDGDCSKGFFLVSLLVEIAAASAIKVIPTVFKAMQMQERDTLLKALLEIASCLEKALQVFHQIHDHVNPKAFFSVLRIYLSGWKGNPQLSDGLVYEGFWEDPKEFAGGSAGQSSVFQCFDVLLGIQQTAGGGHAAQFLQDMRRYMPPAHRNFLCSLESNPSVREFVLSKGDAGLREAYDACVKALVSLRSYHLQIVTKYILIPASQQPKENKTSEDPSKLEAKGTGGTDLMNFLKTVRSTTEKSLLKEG

With `O=C(Nc1ccc(C2(NC(=O)c3ccc(Cl)nc3)CCC2)nc1)c1cc(F)cc(F)c1` [Example 41, 6-chloro-N-(1-{5-[(3,5-difluorobenzene-1-carbonyl)amino]pyridin-2-yl}cyclobutyl)pyridine-3-carboxamide], the IC50 is 9 nM on IDO1 [1], ≥ 10000 nM against TDO and 406 nM against IDO1 [2].

Turning to `O=C(Nc1ccc(C2(C(=O)Nc3ccc(F)cc3)CCC2)nc1)c1cccc(Cl)c1` [Example 36, 3-Chloro-N-(6-(1-((4-fluorophenyl)carbamoyl)cyclobutyl)pyridin-3-yl)benzamide], the IC50 against IDO1 [1] is 3 nM; on TDO, ≥ 10000 nM; at IDO1 [2], 252 nM.

For the compound `O=C(Nc1ccc(C2(C(=O)Nc3ccc(F)cn3)CCC2)nc1)c1cccc(Cl)c1` [Example 37, 3-chloro-N-(6-{1-[(5-fluoropyridin-2-yl)carbamoyl]cyclobutyl}pyridin-3-yl)benzamide], the IC50 is 15 nM at IDO1 [1], ≥ 10000 nM against TDO and 1760 nM on IDO1 [2].

In the case of `O=C(Nc1ccc(C2(NC(=O)c3ccc(Cl)nc3)CCC2)nc1)c1cccc(Cl)c1` [Example 42, 6-chloro-N-(1-{5-[(3-chlorobenzene-1-carbonyl)amino]pyridin-2-yl}cyclobutyl)pyridine-3-carboxamide], the IC50 on IDO1 [1] was 8 nM; at TDO, ≥ 10000 nM; against IDO1 [2], 696 nM.

As for `N#Cc1cccc(C(=O)Nc2ccc(C3(C(=O)Nc4ccc(F)cc4)CCC3)cn2)c1` [Example 24, 3-cyano-N-(5-{1-[(4-fluorophenyl)carbamoyl]cyclobutyl}pyridin-2-yl)benzamide], the results for the IC50 against IDO1 [1], against TDO and on IDO1 [2] were 8 nM, ≥ 10000 nM and 351 nM, respectively.

For `O=C(Nc1ccc(C2(C(=O)Nc3ccc(F)cc3)CCC2)nc1CO)c1cccc(Cl)c1` [Example 55, 3-Chloro-N-(6-(1-((4-fluorophenyl)carbamoyl)cyclobutyl)-2-(hydroxymethyl)pyridin-3-yl)benzamide], the IC50 against IDO1 [1] came to 2 nM; against IDO1 [2] it was 9 nM.

In the case of `O=C(Nc1ccc(C2(C(=O)Nc3ccc(F)cc3)CCC2)cn1)c1cccc(F)c1` [Example 23, 3-Fluoro-N-(5-(1-((4-fluorophenyl)carbamoyl)cyclobutyl)pyridin-2-yl)benzamide], the values for the half-maximal inhibitory concentration (IC50) against IDO1 [1], against TDO and against IDO1 [2] were 3 nM, ≥ 10000 nM and 102 nM, respectively.

With `N#Cc1ccc(C(=O)Nc2ccc(C3(NC(=O)c4ccc(Cl)nc4)CCC3)nc2)cc1` [Example 47, 6-chloro-N-(1-{5-[(4-cyanobenzene-1-carbonyl)amino]pyridin-2-yl}cyclobutyl)pyridine-3-carboxamide], the results for the IC50 against IDO1 [1] and against TDO were 2000 nM and ≥ 10000 nM, respectively.

`O=C(Nc1ccc(C2(NC(=O)c3ccc(Cl)nc3)CCC2)nc1)c1cccc(F)c1` [Example 51, 6-chloro-N-(1-{5-[(3-fluorobenzene-1-carbonyl)amino]pyridin-2-yl}cyclobutyl)pyridine-3-carboxamide]: the values for the IC50 on IDO1 [1] and on TDO were 20 nM and ≥ 10000 nM, respectively.

`O=C(Nc1ccc(C2(C(=O)NCCC(F)(F)F)CCC2)cn1)c1cccc(Cl)c1` [Example 3, 3-chloro-N-(5-{1-[(3,3,3-trifluoropropyl)carbamoyl]cyclobutyl}pyridin-2-yl)benzamide]: the IC50 was 3 nM against IDO1 [1] and ≥ 10000 nM at TDO.

For the compound `O=C(Nc1ccc(C2(C(=O)Nc3ccc(F)cc3)CCC2)cn1)c1ccnc(C(F)(F)F)c1` [Example 29, N-(5-{1-[(4-fluorophenyl)carbamoyl]cyclobutyl}pyridin-2-yl)-2-(trifluoromethyl)pyridine-4-carboxamide], the results for the IC50 against IDO1 [1], at TDO and at IDO1 [2] were 28 nM, ≥ 10000 nM and 2880 nM, respectively.

On to `O=C(Nc1ccc(C2(C(=O)Nc3ccc(F)cc3)CCC2)cn1)c1cccc(Cl)c1F` [Example 14, 3-chloro-2-fluoro-N-(5-{1-[(4-fluorophenyl)carbamoyl]cyclobutyl}pyridin-2-yl)benzamide], for which the values for the half-inhibitory concentration (IC50) on IDO1 [1], on TDO and at IDO1 [2] were 2080 nM, ≥ 10000 nM and 157 nM, respectively.

Consider `O=C(Nc1ccc(C2(C(=O)Nc3ccc(F)cc3)CCC2)cn1)c1cc(Cl)ccc1F` [Example 16, 5-chloro-2-fluoro-N-(5-{1-[(4-fluorophenyl)carbamoyl]cyclobutyl}pyridin-2-yl)benzamide], for which the IC50 on IDO1 [1] was 14 nM; against TDO it was ≥ 10000 nM.

In the case of `O=C(Nc1ccc(C2(C(=O)Nc3ccc(F)cc3)CCC2)cn1)c1cncc(Cl)c1` [Example 25, 5-chloro-N-(5-{1-[(4-fluorophenyl)carbamoyl]cyclobutyl}pyridin-2-yl)pyridine-3-carboxamide], the IC50 was 12 nM at IDO1 [1], ≥ 10000 nM on TDO and 561 nM on IDO1 [2].

Regarding `N#C[C@@H]1CCC[C@H](C(=O)Nc2ccc(C3(C(=O)Nc4ccc(F)cc4)CCC3)cn2)C1` [Example 10, (1S,3R)-3-cyano-N-(5-{1-[(4-fluorophenyl)carbamoyl]cyclobutyl}pyridin-2-yl)cyclohexane-1-carboxamide], the IC50 was 67 nM at IDO1 [1] and ≥ 10000 nM at TDO.

As to `O=C(Nc1ccc(C2(C(=O)Nc3ccc(F)cc3)CCC2)cn1)N1CCCC1` [Example 31, N-(5-{1-[(4-fluorophenyl)carbamoyl]cyclobutyl}pyridin-2-yl)pyrrolidine-1-carboxamide], the figures for the IC50 on IDO1 [1] and against TDO were 145 nM and ≥ 10000 nM, respectively.

For `O=C(Nc1ccc(C2(C(=O)Nc3ccc(F)nc3)CCC2)cn1)C1CCCCC1` [Example 7, N-(5-{1-[(6-fluoropyridin-3-yl)carbamoyl]cyclobutyl}pyridin-2-yl) cyclohexanecarboxamide], the IC50 was 25 nM at IDO1 [1], ≥ 10000 nM against TDO and 8560 nM on IDO1 [2].
